Laboratory results from ChEMBL document CHEMBL3046747, “Assessment of species specificity of moulting accelerating compounds in Lepidoptera: comparison of activity between Bombyx mori and Spodoptera littoralis by in vitro reporter and in vivo toxicity assays” (Pest Manag Sci, 2010).
The source made the active and inactive calls. No cut-off for these calls is given here.

Experiments:
[1] = Cytotoxicity against Bombyx mori Bm5 cells assessed as cell viability after 24 hr by MTT assay; type: cell-based; settings: read-out: pLC50 (converted)
Ecdysone receptor [2] = target: T1, Ecdysone receptor (Bombyx mori, UniProt P49881); experiment: Antagonist activity at ecdysone receptor in Bombyx mori Bm5 cells assessed as tebufenozide-induced effect treated 24 hr before tebufenozide challenge measured after 24 hr by luciferase reporter gene assay; type: cell-based
T1 sequence (P49881 whole entry): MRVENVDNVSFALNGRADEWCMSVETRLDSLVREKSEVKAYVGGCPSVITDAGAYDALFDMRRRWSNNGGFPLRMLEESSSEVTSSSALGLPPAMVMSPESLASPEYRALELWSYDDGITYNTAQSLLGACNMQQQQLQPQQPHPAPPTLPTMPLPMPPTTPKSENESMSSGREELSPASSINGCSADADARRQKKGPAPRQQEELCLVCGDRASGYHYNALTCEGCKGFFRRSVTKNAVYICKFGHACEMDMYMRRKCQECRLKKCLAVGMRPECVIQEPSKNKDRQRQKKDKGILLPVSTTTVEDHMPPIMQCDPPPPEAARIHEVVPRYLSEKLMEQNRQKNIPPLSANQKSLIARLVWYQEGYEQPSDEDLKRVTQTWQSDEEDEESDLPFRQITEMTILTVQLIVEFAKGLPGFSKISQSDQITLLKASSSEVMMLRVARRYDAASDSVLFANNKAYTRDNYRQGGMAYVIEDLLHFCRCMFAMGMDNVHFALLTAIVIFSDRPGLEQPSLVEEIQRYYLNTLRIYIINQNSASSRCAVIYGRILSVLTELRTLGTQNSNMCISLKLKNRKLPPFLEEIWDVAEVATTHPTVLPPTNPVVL

[3] = Ratio of IC50 for ecdysone receptor in Bombyx mori Bm5 cells to LC50 for Bombyx mori Bm5 cells
Spodoptera littoralis [4] = experiment: Cytotoxicity against Spodoptera littoralis Sl2 cells assessed as cell viability after 24 hr by MTT assay; settings: read-out: pLC50 (converted)
[5] = Ratio of IC50 for ecdysone receptor in Spodoptera littoralis Sl2 cells to LC50 for Spodoptera littoralis Sl2 cells
Ecdysone receptor [6] = target: T2, Ecdysone receptor (Spodoptera littoralis, UniProt E3UJZ5); experiment: Antagonist activity at ecdysone receptor in Spodoptera littoralis Sl2 cells assessed as tebufenozide-induced effect treated 24 hr before tebufenozide challenge measured after 24 hr by luciferase reporter gene assay; type: cell-based
T2 sequence (E3UJZ5 whole entry): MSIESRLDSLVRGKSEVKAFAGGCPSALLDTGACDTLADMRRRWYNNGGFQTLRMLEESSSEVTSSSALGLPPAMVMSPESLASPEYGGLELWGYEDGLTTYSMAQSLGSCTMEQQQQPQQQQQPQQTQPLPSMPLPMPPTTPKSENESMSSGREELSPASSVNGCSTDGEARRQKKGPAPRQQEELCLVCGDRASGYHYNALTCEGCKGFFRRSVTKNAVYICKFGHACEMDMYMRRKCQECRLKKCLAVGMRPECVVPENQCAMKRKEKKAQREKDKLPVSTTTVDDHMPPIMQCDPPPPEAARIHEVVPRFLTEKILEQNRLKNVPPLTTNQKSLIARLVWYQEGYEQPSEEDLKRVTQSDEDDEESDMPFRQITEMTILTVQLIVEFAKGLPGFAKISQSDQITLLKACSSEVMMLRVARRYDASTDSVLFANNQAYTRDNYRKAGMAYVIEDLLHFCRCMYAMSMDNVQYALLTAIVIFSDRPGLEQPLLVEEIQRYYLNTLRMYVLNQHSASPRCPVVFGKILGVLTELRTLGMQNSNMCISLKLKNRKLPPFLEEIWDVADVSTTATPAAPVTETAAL

[7] = target: T3, Ecdysone receptor (Spodoptera littoralis) (UniProt E3UJZ5); experiment: Agonist activity at ecdysone receptor in Spodoptera littoralis Sl2 cells at 200 uM after 24 hr by luciferase reporter gene assay; type: cell-based
T3 sequence (whole entry): T2 sequence (E3UJZ5 whole entry)

[8] = target: T4, Ecdysone receptor (Bombyx mori) (UniProt P49881); experiment: Agonist activity at ecdysone receptor in Bombyx mori Bm5 cells at 200 uM after 24 hr by luciferase reporter gene assay; type: cell-based
T4 sequence (whole entry): T1 sequence (P49881 whole entry)

Spodoptera littoralis [9] = experiment: Larvicidal activity against Spodoptera littoralis assessed as mortality applied topically after 1 week; type: functional
Ecdysone receptor [10] = target: T1, Ecdysone receptor; experiment: Agonist activity at ecdysone receptor in Bombyx mori Bm5 cells after 24 hr by luciferase reporter gene assay; type: cell-based
[11] = target: T4, Ecdysone receptor (Bombyx mori); experiment: Agonist activity at ecdysone receptor in Bombyx mori Bm5 cells after 24 hr by luciferase reporter gene assay relative to tebufenozide; type: cell-based
Bombyx mori = experiment: Larvicidal activity against Bombyx mori assessed as mortality applied topically after 1 week; type: functional
[12] = Selectivity ratio of EC50 for ecdysone receptor in Bombyx mori Bm5 cells to EC50 for ecdysone receptor in Spodoptera littoralis Sl2 cells; type: cell-based
Ecdysone receptor [13] = target: T2, Ecdysone receptor; experiment: Agonist activity at ecdysone receptor in Spodoptera littoralis Sl2 cells after 24 hr by luciferase reporter gene assay; type: cell-based
[14] = Ratio of LD50 for Spodoptera littoralis to LD50 for Bombyx mori; type: functional
[15] = target: T3, Ecdysone receptor (Spodoptera littoralis); experiment: Agonist activity at ecdysone receptor in Spodoptera littoralis Sl2 cells after 24 hr by luciferase reporter gene assay relative to tebufenozide; type: cell-based

## Cc1ccc(NC2CCN(C(=O)c3ccc(Cl)cc3)c3ccccc32)cc1 (stereo not given)
[1]
  CC50 at 24 h: 21.4 µM
Ecdysone receptor [2]
  IC50: 8.91 µM
[3]
  Ratio: 0.42
Spodoptera littoralis [4]
  CC50 at 24 h: 427 µM
[5]
  Ratio: 0.12

## Cc1ccc(NC2CC(C)N(C(=O)c3ccc(Cl)cc3)c3ccc(C)cc32)cc1 (stereo not given)
[1]
  CC50 at 24 h: 34.7 µM
Ecdysone receptor [2]
  IC50: 14.8 µM
Ecdysone receptor [6]
  IC50: 79.4 µM
[3]
  Ratio: 0.43
Spodoptera littoralis [4]
  CC50 at 24 h: > 501 µM
[5]
  Ratio: <0.16

## Cc1ccc(NC2CCN(C(=O)c3ccc(Cl)cc3)CC2)cc1
[1]
  CC50 at 24 h: < 5.01 µM
Ecdysone receptor [2]
  IC50: 2.24 µM
Ecdysone receptor [6]
  IC50: 15.1 µM
Spodoptera littoralis [4]
  CC50 at 24 h: 27.5 µM
[5]
  Ratio: 0.55

## CCOc1ccccc1C(=O)N(NC(=O)c1ccc([N+](=O)[O-])cc1)C(C)(C)C
[7]
  Activity: inactive
[8]
  Activity: inactive

## CCOc1ccccc1C(=O)N(NC(=O)c1ccccc1)C(C)(C)C
[7]
  Activity: inactive
[8]
  Activity: inactive

## Cc1ccc(N(C(=O)c2ccc(Cl)cc2)C2CC(C)N(C(=O)c3ccc(Cl)cc3)c3ccc(C)cc32)cc1 (stereo not given)
[1]
  CC50 at 24 h: 7.08 µM
Ecdysone receptor [2]
  IC50: 13.5 µM
Ecdysone receptor [6]
  IC50: 12.9 µM
[3]
  Ratio: 1.91
Spodoptera littoralis [4]
  CC50 at 24 h: > 15.1 µM
[5]
  Ratio: <0.85

## Cc1ccc(NC2CC(C)N(C(=O)c3ccc(C(C)(C)C)cc3)c3ccc(C)cc32)cc1 (stereo not given)
[1]
  CC50 at 24 h: 11.5 µM
Ecdysone receptor [2]
  IC50: 24 µM
Ecdysone receptor [6]
  IC50: > 25.1 µM
[3]
  Ratio: 2.09
Spodoptera littoralis [4]
  CC50 at 24 h: > 25.1 µM

## Cc1cc(C)cc(C(=O)N(NC(=O)c2ccc3c(c2C)CCCO3)C(C)(C)C)c1 [CHROMAFENOZIDE]
Spodoptera littoralis [9]
  pLD50: 7.53
Ecdysone receptor [10]; read-out: pEC50 (converted)
  EC50: 0.001 µM
[11]
  Efficacy: 98%
Bombyx mori
  pLD50: 7.55
[12]
  Ratio EC50: 0.38
Ecdysone receptor [13]; read-out: pEC50 (converted)
  EC50: 0.00263 µM
[14]
  Ratio: 1.12
[15]
  Efficacy: 103%

## Cc1cc(C)cc(C(=O)N(NC(=O)c2ccccc2)C(C)(C)C)c1
Spodoptera littoralis [9]
  pLD50: <5.49
Ecdysone receptor [10]; read-out: pEC50 (converted)
  EC50: 0.2 µM
[11]
  Efficacy: 118%
Bombyx mori
  pLD50: 5.98
[12]
  Ratio EC50: 0.39
Ecdysone receptor [13]; read-out: pEC50 (converted)
  EC50: 0.501 µM
[14]
  Ratio: > 3.09
[15]
  Efficacy: 75%

## CC1CCc2ccccc2N1C(=O)c1ccc(Cl)cc1 (stereo not given)
[1]
  CC50 at 24 h: 69.2 µM
Ecdysone receptor [2]
  IC50: 47.9 µM
Ecdysone receptor [6]
  IC50: 55 µM
[3]
  Ratio: 0.69
Spodoptera littoralis [4]
  CC50 at 24 h: 102 µM
[5]
  Ratio: 0.53

## Cc1ccc(NC2CC(C)N(C(=O)c3ccc(C)cc3)c3ccc(C)cc32)cc1 (stereo not given)
[1]
  CC50 at 24 h: 30.2 µM
Ecdysone receptor [2]
  IC50: 26.9 µM
Ecdysone receptor [6]
  IC50: 74.1 µM
[3]
  Ratio: 0.89
Spodoptera littoralis [4]
  CC50 at 24 h: > 501 µM
[5]
  Ratio: <0.15

## CC(C)(C)N(NC(=O)c1cccc(Cl)c1)C(=O)c1ccccc1Cl
Spodoptera littoralis [9]
  pLD50: <5.44
Ecdysone receptor [10]; read-out: pEC50 (converted)
  EC50: 0.309 µM
[11]
  Efficacy: 119%
Bombyx mori
  pLD50: 5.82
[12]
  Ratio EC50: 0.18
Ecdysone receptor [13]; read-out: pEC50 (converted)
  EC50: 1.7 µM
[14]
  Ratio: > 2.4
[15]
  Efficacy: 75%

## CCc1ccc(C(=O)NC(C(=O)c2cc(C)cc(C)c2)C(C)(C)C)cc1 (stereo not given)
[1]
  CC50 at 24 h: 38.9 µM
Ecdysone receptor [2]
  IC50: 28.2 µM
Ecdysone receptor [6]
  IC50: 24 µM
Ecdysone receptor [10]; read-out: pEC50 (converted)
  EC50: 35.5 µM
[11]
  Efficacy: 11%
[12]
  Ratio EC50: 0.76
[3]
  Ratio: 0.72
Ecdysone receptor [13]; read-out: pEC50 (converted)
  EC50: 46.8 µM
Spodoptera littoralis [4]
  CC50 at 24 h: > 501 µM
[15]
  Efficacy: 17%
[5]
  Ratio: <0.05

## CC(C)(C)N(NC(=O)c1ccccc1F)C(=O)c1ccccc1Cl
Spodoptera littoralis [9]
  pLD50: <4.7
Ecdysone receptor [10]; read-out: pEC50 (converted)
  EC50: 0.145 µM
[11]
  Efficacy: 93%
Bombyx mori
  pLD50: 7.37
[12]
  Ratio EC50: 0.5
Ecdysone receptor [13]; read-out: pEC50 (converted)
  EC50: 0.288 µM
[14]
  Ratio: > 468
[15]
  Efficacy: 105%

## CC(C)(C)N(NC(=O)c1ccccc1)C(=O)c1ccccc1 [RH-5849]
Spodoptera littoralis [9]
  pLD50: 4.75
Ecdysone receptor [10]; read-out: pEC50 (converted)
  EC50: 0.437 µM
[11]
  Efficacy: 87%
Bombyx mori
  pLD50: 5.55
[12]
  Ratio EC50: 0.34
Ecdysone receptor [13]; read-out: pEC50 (converted)
  EC50: 1.29 µM
[14]
  Ratio: 17.8
[15]
  Efficacy: 91%

## CC1CC(Nc2ccc(F)cc2)c2cc(F)ccc2N1C(=O)c1ccc(Cl)cc1 (stereo not given)
[1]
  CC50 at 24 h: 162 µM
Ecdysone receptor [10]; read-out: EC50
  EC50: 55 µM
[11]
  Efficacy: 59%
Ecdysone receptor [13]; read-out: EC50
  EC50: 60 µM
Spodoptera littoralis [4]
  CC50 at 24 h: > 501 µM
[15]
  Efficacy: 64%

## Cc1cc(C)cc(C(=O)C2(NC(=O)C(F)(F)F)CCCCC2)c1
[1]
  CC50 at 24 h: 234 µM
Ecdysone receptor [2]
  IC50: 67.6 µM
Ecdysone receptor [6]
  IC50: 16.2 µM
Ecdysone receptor [10]
  pEC50: > 4
[11]
  Efficacy: 6%
[3]
  Ratio: 0.29
Ecdysone receptor [13]; sl2
  pEC50: > 4
Spodoptera littoralis [4]
  CC50 at 24 h: > 501 µM
[15]
  Efficacy: 17%
[5]
  Ratio: <0.04
